Measurements published in patent US8765721B2, “Composition comprising phosphatidyl serine and an antigen or allergen and the use thereof” (Vaccine Technology Limited, priority 2004, dated 2014).

What was measured:
Format in all cases: in vivo, rat
[1] = test system: IgE; assay: Ovalbumin-specific IgE ELISA of serum of immunised rats; settings: pooled group serum
Protocol: (§1) Rats were injected with vaccine compositions comprising the ovalbumin antigen with and without di-oleoyl phosphatidyl serine, lyso-oleoyl phosphatidyl serine or stearoyl(X1)-arachidonoyl(X2) phosphatidyl serine and the concentrations of IgE, IgA and IgG are compared.
(§2) The animals were acclimatised for a period of 5 days prior to dosing. During the acclimatisation period animals were observed twice daily during the working week and once on each day during the weekend to evaluate the health status of the animals. Rats were then allocated to the following dose groups using computer-generated random order numbers.
(§3) On day 0, 20 μg of ovalbumin (OA) in phosphate buffered saline (PBS) with alhydrogel (AHG) adjuvant in a final volume of 0.5 mL was administered.
(§4) On days 21 and 42, 20 μg of ovalbumin (OA) in phosphate buffered saline (PBS) with the relevant test compound in a final volume of 0.5 ml was administered.
(§5) In each case, 0.5 mL of inoculum was injected subcutaneously into the scruff of the neck.
(§6) […] A blood sample was also taken from each animal on Days 15, 22, 29, 36, 43, 50, 57 and 64.
(§7) Serum was prepared by centrifugation of the blood sample at 2,500 rpm for 10 minutes and frozen at −20° C. The samples were then analysed by ELISA to establish the concentration of IgE, IgA and IgG1, IgG2a and IgG2b.
(§8) The purpose of an ELISA is to determine whether a particular protein is present in a sample and then enables quantification of how much is present. By coating the bottom of wells with ovalbumin (OVA) it is possible to bind anti-OVA specific antibodies. To detect only anti-OVA IgA antibodies anti-rat IgA conjugated to HRP was used as a secondary antibody. Quantification of specific antibodies in the rat sera samples was performed using antibody titrations. The data was reported as endpoint titers. Endpoint titers are defined as the last serum dilution giving an optical density value equal to twice the background optical density for the ELISA plate (buffer).

[2] = test system: IgA; assay: Ovalbumin-specific IgA ELISA of serum of immunised rats; settings: pooled group serum
Protocol: as §1, §2, §3, §4, §5
On Day 0 a pre-inoculation blood sample was taken. A blood sample was also taken from each animal on Days 15, 22, 29, 36, 43, 50, 57 and 64.
as §7, §8

[3] = test system: IgG1; assay: Ovalbumin-specific IgG1 ELISA of serum of immunised rats; settings: pooled group serum
Protocol: as §1, §2, §3, §4
(§9) In each case, 0.5 mL of inoculum was injected subcutaneously into the scruff of the neck. […]
as §7
as §8, with “To detect only anti-OVA IgA antibodies anti-rat IgA conjugated to HRP was used as a secondary antibody.” left out

[4] = test system: IgG2a; assay: Ovalbumin-specific IgG2a ELISA of serum of immunised rats; settings: pooled group serum
Protocol: as §1, §2, §3, §4, §9, §7, §8

[5] = test system: IgG2b; assay: Ovalbumin-specific IgG2b ELISA of serum of immunised rats; settings: pooled group serum
Protocol: as §1, §2, §3, §4, §5, §6, §7, §8

[6] = test system: IgE; assay: Ovalbumin-specific IgE ELISA of serum of immunised rats; settings: Day 1; 250 ug with 20 μg Ova s.c. on days 21 and 42; pooled group serum
[7] = test system: IgA; assay: Ovalbumin-specific IgA ELISA of serum of immunised rats; settings: Day 1; 50 ug with 20 μg Ova s.c. on days 21 and 42; pooled group serum
[8] = Day 1, 50 ug with 20 μg Ova s.c. on days 21 and 42
[9] = Day 15, 50 ug with 20 μg Ova s.c. on days 21 and 42
[10] = Day 15, 250 ug with 20 μg Ova s.c. on days 21 and 42
[11] = Day 22, 50 ug with 20 μg Ova s.c. on days 21 and 42
[12] = Day 22, 250 ug with 20 μg Ova s.c. on days 21 and 42
[13] = Day 29, 50 ug with 20 μg Ova s.c. on days 21 and 42
[14] = Day 29, 250 ug with 20 μg Ova s.c. on days 21 and 42
[15] = Day 36, 50 ug with 20 μg Ova s.c. on days 21 and 42
[16] = Day 36, 250 ug with 20 μg Ova s.c. on days 21 and 42
[17] = Day 43, 50 ug with 20 μg Ova s.c. on days 21 and 42
[18] = Day 43, 250 ug with 20 μg Ova s.c. on days 21 and 42
[19] = Day 50, 50 ug with 20 μg Ova s.c. on days 21 and 42
[20] = Day 50, 250 ug with 20 μg Ova s.c. on days 21 and 42
[21] = Day 57, 50 ug with 20 μg Ova s.c. on days 21 and 42
[22] = Day 57, 250 ug with 20 μg Ova s.c. on days 21 and 42
[23] = Day 64, 50 ug with 20 μg Ova s.c. on days 21 and 42
[24] = Day 64, 250 ug with 20 μg Ova s.c. on days 21 and 42
[25] = Day 1, 250 ug with 20 μg Ova s.c. on days 21 and 42

CCCCC/C=C\C/C=C\C/C=C\C/C=C\CCCC(=O)O[C@H](COC(=O)CCCCCCCCCCCCCCCCC)COP(=O)(O)OC[C@H](N)C(=O)O [VT003, Stearoyl arachadonoyl phosphatidyl serine]
IgE endpoint titer [1, 8]: 0 | IgE endpoint titer [1, 9]: 0 | IgE endpoint titer [1, 10]: 0 | IgE endpoint titer [1, 11]: 0 | IgE endpoint titer [1, 12]: 0 | IgE endpoint titer [1, 13]: 0 | IgE endpoint titer [1, 14]: 0 | IgE endpoint titer [1, 15]: 0 | IgE endpoint titer [1, 16]: 0 | IgE endpoint titer [1, 17]: 0 | IgE endpoint titer [1, 18]: 0 | IgE endpoint titer [1, 19]: 320 | IgE endpoint titer [1, 20]: 80 | IgE endpoint titer [1, 21]: 80 | IgE endpoint titer [1, 22]: 40 | IgE endpoint titer [1, 23]: 40 | IgE endpoint titer [1, 24]: 20 | IgA endpoint titer [2, 25]: 0 | IgA endpoint titer [2, 9]: 0 | IgA endpoint titer [2, 10]: 0 | IgA endpoint titer [2, 11]: 0 | IgA endpoint titer [2, 12]: 0 | IgA endpoint titer [2, 13]: 40 | IgA endpoint titer [2, 14]: 40 | IgA endpoint titer [2, 15]: 640 | IgA endpoint titer [2, 16]: 160 | IgA endpoint titer [2, 17]: 640 | IgA endpoint titer [2, 18]: 320 | IgA endpoint titer [2, 19]: 1280 | IgA endpoint titer [2, 20]: 640 | IgA endpoint titer [2, 21]: 640 | IgA endpoint titer [2, 22]: 640 | IgA endpoint titer [2, 23]: 640 | IgA endpoint titer [2, 24]: 1280 | IgG1 endpoint titer [3, 8]: 0 | IgG1 endpoint titer [3, 25]: 0 | IgG1 endpoint titer [3, 9]: 320 | IgG1 endpoint titer [3, 10]: 320 | IgG1 endpoint titer [3, 11]: 2560 | IgG1 endpoint titer [3, 12]: 2560 | IgG1 endpoint titer [3, 13]: 20480 | IgG1 endpoint titer [3, 14]: 20480 | IgG1 endpoint titer [3, 15]: 20480 | IgG1 endpoint titer [3, 16]: 20480 | IgG1 endpoint titer [3, 17]: 20480 | IgG1 endpoint titer [3, 18]: 10240 | IgG1 endpoint titer [3, 19]: 20480 | IgG1 endpoint titer [3, 20]: 10240 | IgG1 endpoint titer [3, 21]: 10240 | IgG1 endpoint titer [3, 22]: 10240 | IgG1 endpoint titer [3, 23]: 40960 | IgG1 endpoint titer [3, 24]: 20480 | IgG2a endpoint titer [4, 8]: 0 | IgG2a endpoint titer [4, 25]: 0 | IgG2a endpoint titer [4, 9]: 40 | IgG2a endpoint titer [4, 10]: 40 | IgG2a endpoint titer [4, 11]: 1280 | IgG2a endpoint titer [4, 12]: 1280 | IgG2a endpoint titer [4, 13]: 2560 | IgG2a endpoint titer [4, 14]: 2560 | IgG2a endpoint titer [4, 15]: 10240 | IgG2a endpoint titer [4, 16]: 5120 | IgG2a endpoint titer [4, 17]: 10240 | IgG2a endpoint titer [4, 18]: 5120 | IgG2a endpoint titer [4, 19]: 20480 | IgG2a endpoint titer [4, 20]: 20480 | IgG2a endpoint titer [4, 21]: 10240 | IgG2a endpoint titer [4, 22]: 10240 | IgG2a endpoint titer [4, 23]: 20480 | IgG2a endpoint titer [4, 24]: 20480 | IgG2b endpoint titer [5, 8]: 0 | IgG2b endpoint titer [5, 25]: 0 | IgG2b endpoint titer [5, 9]: 40 | IgG2b endpoint titer [5, 10]: 40 | IgG2b endpoint titer [5, 11]: 320 | IgG2b endpoint titer [5, 12]: 80 | IgG2b endpoint titer [5, 13]: 40 | IgG2b endpoint titer [5, 14]: 80 | IgG2b endpoint titer [5, 15]: 640 | IgG2b endpoint titer [5, 16]: 640 | IgG2b endpoint titer [5, 17]: 320 | IgG2b endpoint titer [5, 18]: 1280 | IgG2b endpoint titer [5, 19]: 160 | IgG2b endpoint titer [5, 20]: 320 | IgG2b endpoint titer [5, 21]: 640 | IgG2b endpoint titer [5, 22]: 1280 | IgG2b endpoint titer [5, 23]: 640 | IgG2b endpoint titer [5, 24]: 1280 | IgE endpoint titer [6]: 0 | IgA endpoint titer [7]: 0
